Reference: patent US6534523B1, “Hepatitis C inhibitor tri-peptides” (Boehringer Ingelheim (Canada) Ltd., priority 1998, dated 2003)
Read-outs that look alike come from different tables or passages of the source.

Target: HCV NS3 protease (UniProt P26663)
Assay type: biochemical, HCV genotype 1b
Set-up: rows headed: IC50 (μM); IC50 (μM)

HCV NS3 protease, sequence (P26663 1027-1206, other chains not shown): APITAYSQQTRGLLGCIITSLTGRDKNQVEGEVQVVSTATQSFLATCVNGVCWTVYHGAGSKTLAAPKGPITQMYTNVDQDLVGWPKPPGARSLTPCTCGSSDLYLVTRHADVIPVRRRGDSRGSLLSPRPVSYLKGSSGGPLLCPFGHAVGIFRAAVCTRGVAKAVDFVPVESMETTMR

`C=CC1CC1(NC(=O)C1CC(Oc2cc(-c3ccc(OC)cc3)nc3cc(OC)ccc23)CN1C(=O)C(NC(=O)NC(C)(C)C)C(C)(C)C)C(=O)O` (stereo not shown) [compound 844] showed an IC50 (Table 8) of 6 nM.

`C=CC1CC1(NC(=O)C1CC(Oc2cc(-c3ccccc3)nc3cc(OC)ccc23)CN1C(=O)C(Nc1ccc(NC(C)=O)cc1)C(C)C)C(=O)O` (stereo not shown) [compound 845] gave an IC50 (Table 8) of 180 nM.

Compound `C=CC1CC1(NC(=O)C1CC(Oc2cc(-c3ccccc3)nc3cc(OC)ccc23)CN1C(=O)C(Nc1ccc2c(c1)OCO2)C(C)C)C(=O)O` (stereo not shown) [compound 846] has an IC50 (Table 8) of 104 nM.

With `C=CC1CC1(NC(=O)C1CC(Oc2cc(-c3ccccc3)nc3cc(OC)ccc23)CN1C(=O)C(NC(=O)OC(C)(C)C)C1CCCCC1)C(=O)O` (stereo not shown) [compound 847] the IC50 (Table 8) was 37 nM.

In the case of `C=CC1CC1(NC(=O)C1CC(Oc2cc(-c3ccccc3)nc3cc(OC)ccc23)CN1C(=O)C(CC(C)C)NC(=O)OC(C)(C)C)C(=O)O` (stereo not shown) [compound 848], the IC50 (Table 8) is reported as 93 nM.

`C=CC1CC1(NC(=O)C1CC(Oc2cc(-c3ccccc3)nc3cc(OC)ccc23)CN1C(=O)C(CC(C)(C)C)NC(=O)OC(C)(C)C)C(=O)O` (stereo not shown) [compound 849] showed an IC50 (Table 8) of 110 nM.

`C=CC1CC1(NC(=O)C1CC(Oc2cc(-c3ccccc3)nc3cc(OC)ccc23)CN1C(=O)C(NC(=O)OC(C)(C)C)C(C)OC(C)(C)C)C(=O)O` (stereo not shown) [compound 850] was tested, and the IC50 (Table 8) was 63 nM.

`C=CC1CC1(NC(=O)C1CC(Oc2cc(-c3ccccc3)nc3cc(OC)ccc23)CN1C(=O)C(NC(=O)OC(C)(C)C)C(C)OC)C(=O)O` (stereo not shown) [compound 851] was tested, and the IC50 (Table 8) was 120 nM.

In the case of `C=CC1CC1(NC(=O)C1CC(Oc2cc(-c3ccccc3)nc3cc(OC)ccc23)CN1C(=O)C(NC(=O)OC(C)(C)C)C(C)OC)C(=O)O` (stereo not shown) [compound 852], the IC50 (Table 8) is reported as 50 nM.

`C=CC1CC1(NC(=O)C1CC(Oc2cc(-c3ccccc3)nc3cc(OC)ccc23)CN1C(=O)C(NC(=O)OC(C)(C)C)C(C)OCc1ccccc1)C(=O)O` (stereo not shown) [compound 853] was tested, and the IC50 (Table 8) was 170 nM.

`C=CC1CC1(NC(=O)C1CC(Oc2cc(-c3ccccc3)nc3cc(OC)ccc23)CN1C(=O)C(Nc1cccc(-c2ccccc2)c1)C(C)C)C(=O)O` (stereo not shown) [compound 854] gave an IC50 (Table 8) of 370 nM.

Work on `C=CC1CC1(NC(=O)C1CC(Oc2cc(-c3ccccc3)nc3cc(OC)ccc23)CN1C(=O)C(Nc1cccc(CCO)c1)C(C)C)C(=O)O` (stereo not shown) [compound 855] yielded an IC50 (Table 8) of 75 nM.

With `C=CC1CC1(NC(=O)C1CC(Oc2cc(-c3ccccc3)nc3cc(OC)ccc23)CN1C(=O)C(Nc1ccc(CC#N)cc1)C(C)C)C(=O)O` (stereo not shown) [compound 856] the IC50 (Table 8) was 110 nM.

Compound `C=CC1CC1(NC(=O)C1CC(Oc2cc(-c3ccccc3)nc3cc(OC)ccc23)CN1C(=O)C(NC(=O)NC(C)(C)COC)C(C)(C)C)C(=O)O` (stereo not shown) [compound 857] has an IC50 (Table 8) of 11 nM.

With `C=CC1CC1(NC(=O)C1CC(Oc2cc(-c3ccccc3)nc3cc(OC)ccc23)CN1C(=O)C(NC(=O)N(C)C(C)(C)C)C(C)(C)C)C(=O)O` (stereo not shown) [compound 858] the IC50 (Table 8) was 205 nM.

With `C=CC1CC1(NC(=O)C1CC(Oc2cc(-c3ccccc3)nc3cc(OC)ccc23)CN1C(=O)C(NC1CCCCC1)C(C)C)C(=O)O` (stereo not shown) [compound 859] the IC50 (Table 8) was 830 nM.

With `C=CC1CC1(NC(=O)C1CC(Oc2cc(-c3ccccc3)nc3cc(OC)ccc23)CN1C(=O)C(Nc1cccc(Oc2ccc(F)cc2)c1)C(C)C)C(=O)O` (stereo not shown) [compound 860] the IC50 (Table 8) was 240 nM.

`C=CC1CC1(NC(=O)C1CC(Oc2cc(-c3ccccc3)nc3cc(OC)ccc23)CN1C(=O)C(Nc1cccc(CC#N)c1)C(C)C)C(=O)O` (stereo not shown) [compound 861] gave an IC50 (Table 8) of 170 nM.

Compound `C=CC1CC1(NC(=O)C1CC(Oc2cc(-c3ccccc3)nc3cc(OC)ccc23)CN1C(=O)C(Nc1cc(F)cc(F)c1)C(C)C)C(=O)O` (stereo not shown) [compound 862] has an IC50 (Table 8) of 230 nM.

Work on `C=CC1CC1(NC(=O)C1CC(Oc2cc(-c3ccccc3)nc3cc(OC)ccc23)CN1C(=O)C(Nc1ccc2ccccc2c1)C(C)C)C(=O)O` (stereo not shown) [compound 863] yielded an IC50 (Table 8) of 300 nM.

Work on `C=CC1CC1(NC(=O)C1CC(Oc2cc(-c3ccccc3)nc3cc(OC)ccc23)CN1C(=O)C(Nc1ccccc1F)C(C)C)C(=O)O` (stereo not shown) [compound 864] yielded an IC50 (Table 8) of 450 nM.

With `C=CC1CC1(NC(=O)C1CC(Oc2cc(-c3ccccc3)nc3cc(OC)ccc23)CN1C(=O)C(NC(=O)OC1CCOC1)C(C)(C)C)C(=O)O` (stereo not shown) [compound 865] the IC50 (Table 8) was 20 nM.

Work on `C=CC1CC1(NC(=O)C1CC(Oc2cc(-c3ccccc3)nc3cc(OC)ccc23)CN1C(=O)C(NC(=O)OCC(C)(C)N)C(C)(C)C)C(=O)O` (stereo not shown) [compound 866] yielded an IC50 (Table 8) of 200 nM.

Work on `C=CC1CC1(NC(=O)C1CC(Oc2cc(-c3ccccc3)nc3cc(OC)ccc23)CN1C(=O)C(NC(=O)OC1CCOC1)C(C)(C)C)C(=O)O` (stereo not shown) [compound 867] yielded an IC50 (Table 8) of 51 nM.

For `C=CC1CC1(NC(=O)C1CC(Oc2cc(-c3ccccc3)nc3cc(OC)ccc23)CN1C(=O)C(NC(=O)OC1CCCCC1)C(C)(C)C)C(=O)O` (stereo not shown) [compound 868], the IC50 (Table 8) was 30 nM.

For `C=CC1CC1(NC(=O)C1CC(Oc2cc(-c3ccccc3)nc3cc(OC)ccc23)CN1C(=O)C(NC(=O)OC1CCCC1)C(C)(C)C)C(=O)O` (stereo not shown) [compound 869], the IC50 (Table 8) was 14 nM.

With `C=CC1CC1(NC(=O)C1CC(Oc2cc(-c3ccccc3)nc3cc(OC)ccc23)CN1C(=O)C(NC(=O)NC(C)(C)CC)C(C)(C)C)C(=O)O` (stereo not shown) [compound 870] the IC50 (Table 8) was 9 nM.

In the case of `C=CC1CC1(NC(=O)C1CC(Oc2cc(-c3ccccc3)nc3cc(OC)ccc23)CN1C(=O)C(NC(=O)NC(C)(CC)CC)C(C)(C)C)C(=O)O` (stereo not shown) [compound 871], the IC50 (Table 8) is reported as 11 nM.

In the case of `C=CC1CC1(NC(=O)C1CC(Oc2cc(-c3ccccc3)nc3cc(OC)ccc23)CN1C(=O)C(NC(=O)NC(C)C(C)(C)C)C(C)(C)C)C(=O)O` (stereo not shown) [compound 872], the IC50 (Table 8) is reported as 5 nM.

In the case of `C=CC1CC1(NC(=O)C1CC(Oc2cc(-c3ccccc3)nc3cc(OC)ccc23)CN1C(=O)C(NC(=O)NC(C)C(C)(C)C)C(C)(C)C)C(=O)O` (stereo not shown) [compound 873], the IC50 (Table 8) is reported as 19 nM.

Compound `C=CC1CC1(NC(=O)C1CC(Oc2cc(-c3ccccc3)nc3cc(OC)ccc23)CN1C(=O)C(NC(=O)C(CC(=O)O)C1CCCCC1)C(C)(C)C)C(=O)O` (stereo not shown) [compound 903] has an IC50 (Table 9) of 5 nM.

`C=CC1CC1(NC(=O)C1CC(Oc2cc(-c3ccccc3)nc3cc(OC)ccc23)CN1C(=O)C(NC(=O)c1cccc(O)c1)C(C)(C)C)C(=O)O` (stereo not shown) [compound 904] was tested, and the IC50 (Table 9) was 95 nM.

Work on `C=CC1CC1(NC(=O)C1CC(Oc2cc(-c3ccccc3)nc3cc(OC)ccc23)CN1C(=O)C(NC(=O)OC1CCC1)C(C)(C)C)C(=O)O` (stereo not shown) [compound 905] yielded an IC50 (Table 9) of 29 nM.

For `C=CC1CC1(NC(=O)C1CC(Oc2cc(-c3ccccc3)nc3cc(OC)ccc23)CN1C(=O)C(NC(=O)NC(CC)C(C)(C)C)C(C)(C)C)C(=O)O` (stereo not shown) [compound 906], the IC50 (Table 9) was 14 nM.

`C=CC1CC1(NC(=O)C1CC(Oc2cc(-c3ccccc3)nc3cc(OC)ccc23)CN1C(=O)C(NC(=O)OC1CCSC1)C(C)(C)C)C(=O)O` (stereo not shown) [compound 907] was tested, and the IC50 (Table 9) was 25 nM.

For `C=CC1CC1(NC(=O)C1CC(Oc2cc(-c3ccccc3)nc3cc(OC)ccc23)CN1C(=O)C(NC(=O)c1ccccc1)C(C)(C)C)C(=O)O` (stereo not shown) [compound 908], the IC50 (Table 9) was 72 nM.

`C=CC1CC1(NC(=O)C1CC(Oc2cc(-c3ccccc3)nc3cc(OC)ccc23)CN1C(=O)C(NS(=O)(=O)c1ccccc1)C(C)(C)C)C(=O)O` (stereo not shown) [compound 909] showed an IC50 (Table 9) of 36 nM.

With `C=CC1CC1(NC(=O)C1CC(Oc2cc(-c3ccccc3)nc3cc(OC)ccc23)CN1C(=O)C(NC(=O)OC(C)C(C)(C)C)C(C)(C)C)C(=O)O` (stereo not shown) [compound 910] the IC50 (Table 9) was 56 nM.

`C=CC1CC1(NC(=O)C1CC(Oc2cc(-c3ccccc3)nc3cc(OC)ccc23)CN1C(=O)C(NC(=O)c1cccc(O)c1C)C(C)(C)C)C(=O)O` (stereo not shown) [compound 911] gave an IC50 (Table 9) of 39 nM.

`C=CC1CC1(NC(=O)C1CC(Oc2cc(-c3ccccc3)nc3cc(OC)ccc23)CN1C(=O)C(NS(=O)(=O)c1cccs1)C(C)(C)C)C(=O)O` (stereo not shown) [compound 912] gave an IC50 (Table 9) of 34 nM.

`C=CC1CC1(NC(=O)C1CC(Oc2cc(-c3ccccc3)nc3cc(OC)ccc23)CN1C(=O)C(NC(=O)Nc1nccs1)C(C)(C)C)C(=O)O` (stereo not shown) [compound 913] gave an IC50 (Table 9) of 30 nM.

`C=CC1CC1(NC(=O)C1CC(Oc2cc(-c3ccccc3)nc3cc(OC)ccc23)CN1C(=O)C(NS(=O)(=O)c1sc(NC(C)=O)nc1C)C(C)(C)C)C(=O)O` (stereo not shown) [compound 914] was tested, and the IC50 (Table 9) was 31 nM.

With `C=CC1CC1(NC(=O)C1CC(Oc2cc(-c3ccccc3)nc3cc(OC)ccc23)CN1C(=O)C(NC(=O)c1ccc[nH]1)C(C)(C)C)C(=O)O` (stereo not shown) [compound 916] the IC50 (Table 9) was 300 nM.
